Series [1] concerns the target Human immunodeficiency virus type 1 reverse transcriptase (Human immunodeficiency virus 1, UniProt Q72547). In words: Inhibition of recombinant HIV1 Reverse transcriptase p66/p51 using poly (rA)-oligo (dT) as template primer after 40 mins by spectrofluorometric analysis.
A short description of series [2]: Cytotoxicity against uninfected human MT4 cells assessed as decrease in cell viability after 5 days by MTT assay. It is filed as cell-based. On the technique in general: Formazan colour is commonly taken as a measure of viable cells.
In series [3] the test system is Human immunodeficiency virus 1. In words: Antiviral activity against wild type HIV 1 3B infected in human MT4 cells assessed as protection against virus-induced cytopathogenicity after 5 days by MTT assay. The conditions noted are these: Human immunodeficiency virus 1, 3B, MT4, 120 h. It is filed as functional, organism-based. Background: Cytopathic effects are the visible damage that an infection or toxin causes in cultured cells.

The subject of series [4] is Human immunodeficiency virus 2. In words: Antiviral activity against wild type HIV 2 ROD infected in human MT4 cells assessed as protection against virus-induced cytopathogenicity after 5 days by MTT assay. The conditions noted are these: Human immunodeficiency virus 2, ISOLATE ROD, MT4, 120 h. It is filed as functional, organism-based.
Series [5] in a line: Selectivity index, ratio of CC50 for uninfected human MT4 cells to EC50 for wild type HIV 1 3B infected in human MT4 cells. It is filed as toxicity, cell-based. The conditions noted are these: uninfected and infected with wild type HIV-1 3B, read-out: Ratio CC50/EC50.
The subject of series [6] is Human immunodeficiency virus 1. In words: Antiviral activity against HIV 1 RES056 harboring reverse transcriptase K103N/Y181C double mutant infected in human MT4 cells assessed as protection against virus-induced cytopathogenicity after 5 days by MTT assay. It is filed as functional, organism-based. The conditions noted are these: Human immunodeficiency virus 1, RES056, MT4, 120 h.

A word on the IC50: it is the concentration that gives 50% inhibition. A word on the CC50: it is the concentration giving 50% cytotoxicity. The EC50 is the midpoint of the concentration-response curve. With `COc1cccc(CNc2ccnc(Nc3ccc(C#N)cc3)n2)c1`, the IC50 in series [1] was determined as 0.018 µM. Moreover, the CC50 at 120 h in series [2] worked out at 2.38 µM. The EC50 in series [3] is 0.0045 µM; in series [4], greater than 0.79 mg/L; in series [6], greater than 0.79 mg/L. Further, in series [5], the selectivity ratio turned out to be 518.

With `Cc1cc(C#N)cc(C)c1Oc1nc(Nc2ccc(C#N)cc2)nc(N)c1Br` [ETRAVIRINE], in series [2], the CC50 at 120 h is greater than 4.59 µM.

As to `N#Cc1ccc(Nc2nccc(NCc3ccc(Br)cc3)n2)cc1`, the IC50 in series [1] was determined as 0.029 µM. Also, in series [2], the CC50 at 120 h was determined as 3.37 µM. Also, the results for the EC50 in series [3], in series [4] and in series [6] were 0.0394 µM, greater than 1.28 mg/L and greater than 1.28 mg/L, respectively. Moreover, the selectivity ratio in series [5] came to 85.

As for `N#Cc1ccc(Nc2nccc(NCc3cccc(C(F)(F)F)c3)n2)cc1`, the IC50 in series [1] came out at 0.122 µM. The CC50 at 120 h in series [2] worked out at 1.92 µM. For the same compound, the EC50 in series [3] was 0.206 µM; in series [4] it was greater than 0.71 mg/L; in series [6], greater than 0.71 mg/L. Besides, the selectivity ratio in series [5] amounted to 9.

Turning to `N#Cc1ccc(Nc2nccc(NCc3ccccc3)n2)cc1`, the IC50 in series [1] came out at 0.02 µM. For the same compound, in series [2], the CC50 at 120 h is 1.59 µM. Moreover, the EC50 in series [3] was 0.0053 µM; in series [4], greater than 0.48 mg/L; in series [6], greater than 0.48 mg/L. In series [5], the selectivity ratio came to 294.

Consider `Cc1ccnc2c1NC(=O)c1cccnc1N2C1CC1` [NEVIRAPINE], for which the CC50 at 120 h in series [2] was greater than 15 µM. For the same compound, in series [6], the EC50 is no less than 2.02 mg/L.

With `N#Cc1ccc(Nc2nccc(NCc3cccc(Cl)c3)n2)cc1`, the IC50 in series [1] was 0.018 µM. Further, the CC50 at 120 h in series [2] worked out at 2.08 µM. For the same compound, the EC50 in series [3] is 0.0119 µM; in series [4], greater than 0.7 mg/L; in series [6], greater than 0.7 mg/L. For the same compound, in series [5], the selectivity ratio stood at 175.

Regarding `N#Cc1ccc(Nc2nccc(NCc3ccccc3F)n2)cc1`, in series [1], the 50% inhibitory concentration (IC50) was 0.016 µM. The CC50 at 120 h in series [2] came out at 2.76 µM. For the same compound, the EC50 is 0.0026 µM in series [3], greater than 0.88 mg/L in series [4] and greater than 0.88 mg/L in series [6]. The selectivity ratio in series [5] amounted to 1080.

With `N#Cc1ccc(Nc2nccc(NCc3cccc(F)c3)n2)cc1`, the IC50 in series [1] amounted to 0.016 µM. The cytotoxic concentration (CC50) at 120 h in series [2] turned out to be 1.41 µM. Moreover, the EC50 in series [3] is 0.0044 µM; in series [4] it was greater than 0.45 mg/L; in series [6], greater than 0.45 mg/L. In addition, in series [5], the selectivity ratio was determined as 333.

As for `N#Cc1ccc(Nc2nccc(NCc3cccc(Br)c3)n2)cc1`, the IC50 in series [1] was 0.024 µM. In series [2], the CC50 at 120 h turned out to be 1.76 µM. In addition, the figures for the EC50 in series [3], in series [4] and in series [6] were 0.0203 µM, greater than 0.67 mg/L and greater than 0.67 mg/L, respectively. The selectivity ratio in series [5] was determined as 86.

As to `COc1ccc(CNc2ccnc(Nc3ccc(C#N)cc3)n2)cc1`, the IC50 in series [1] stood at 0.085 µM. Also, the CC50 at 120 h in series [2] worked out at 2.35 µM. For the same compound, the values for the EC50 in series [3], in series [4] and in series [6] were 0.0393 µM, greater than 0.78 mg/L and greater than 0.78 mg/L, respectively. Further, in series [5], the selectivity ratio worked out at 60.

Regarding `N#Cc1ccc(Nc2nccc(NCc3ccc(F)cc3F)n2)cc1`, in series [1], the IC50 stood at 0.056 µM. Further, the 50% cytotoxic concentration (CC50) at 120 h in series [2] worked out at 4.18 µM. Moreover, the EC50 is 0.0169 µM in series [3], greater than 1.41 mg/L in series [4] and greater than 1.41 mg/L in series [6]. For the same compound, the selectivity ratio in series [5] amounted to 245.

With `COc1ccccc1CNc1ccnc(Nc2ccc(C#N)cc2)n1`, the IC50 in series [1] was determined as 0.936 µM. In series [2], the CC50 at 120 h amounted to 82.5 µM. Besides, the EC50 was 0.0875 µM in series [3], greater than 27.3 mg/L in series [4] and greater than 27.3 mg/L in series [6]. The selectivity ratio in series [5] is 937.

On to `N#Cc1ccc(Nc2nccc(NCc3ccccc3Br)n2)cc1`, for which the IC50 in series [1] was found to be 0.071 µM. Besides, the CC50 at 120 h in series [2] is 195 µM. Besides, the EC50 in series [3] was 0.0421 µM; in series [4], greater than 74.1 mg/L; in series [6], greater than 74.1 mg/L. For the same compound, in series [5], the selectivity ratio amounted to 4680.

Take `N#Cc1ccc(Nc2nccc(NCc3ccc(F)cc3)n2)cc1`: the IC50 in series [1] amounted to 0.382 µM. The CC50 at 120 h in series [2] turned out to be 1.72 µM. Further, the EC50 was 0.072 µM in series [3], greater than 0.55 mg/L in series [4] and greater than 0.55 mg/L in series [6]. For the same compound, in series [5], the selectivity ratio stood at 23.

Regarding `N#Cc1ccc(Nc2nccc(NCc3ccc(Cl)cc3)n2)cc1`, the IC50 in series [1] was found to be 0.048 µM. Besides, the CC50 at 120 h in series [2] was determined as 3.28 µM. For the same compound, the EC50 in series [3] is 0.0476 µM; in series [4], greater than 1.1 mg/L; in series [6], greater than 1.1 mg/L. In addition, the selectivity ratio in series [5] amounted to 71.

Consider `Cc1ccc(CNc2ccnc(Nc3ccc(C#N)cc3)n2)cc1`, for which, in series [1], the IC50 was 0.013 µM. Besides, the CC50 at 120 h in series [2] amounted to 2.5 µM. Moreover, the EC50 in series [3] is 0.0082 µM; in series [4] it was greater than 0.79 mg/L; in series [6], greater than 0.79 mg/L. The selectivity ratio in series [5] was determined as 297.

Take `O=C1Nc2ccc(Cl)cc2[C@@](C#CC2CC2)(C(F)(F)F)O1` [EFAVIRENZ]: the CC50 at 120 h in series [2] was greater than 6.34 µM. Besides, in series [3], the EC50 amounted to 0.0063 µM.

In the case of `N#Cc1ccc(Nc2nccc(NCc3ccc(C(F)(F)F)cc3)n2)cc1`, in series [1], the IC50 came out at 0.07 µM. For the same compound, the cytotoxic concentration (CC50) at 120 h in series [2] turned out to be 3.01 µM. Moreover, the EC50 in series [3] is 0.127 µM; in series [4] it was greater than 1.11 mg/L; in series [6], greater than 1.11 mg/L. In addition, in series [5], the selectivity ratio stood at 24.

Turning to `N#Cc1ccc(Nc2nccc(NCc3ccccc3C(F)(F)F)n2)cc1`, in series [1], the IC50 stood at 1.54 µM. Further, the CC50 at 120 h in series [2] amounted to 113 µM. The EC50 in series [3] is 1.06 µM; in series [4] it was greater than 41.6 mg/L; in series [6] it was greater than 41.6 mg/L. Moreover, the selectivity ratio in series [5] is 107.

Take `Cc1ccc(CNc2ccnc(Nc3ccc(C#N)cc3)n2)cc1C`: in series [1], the half-maximal inhibitory concentration (IC50) came out at 0.009 µM. The half-maximal cytotoxic concentration (CC50) at 120 h in series [2] turned out to be 3.67 µM. Moreover, the values for the EC50 in series [3], in series [4] and in series [6] were 0.003 µM, greater than 1.21 mg/L and greater than 1.21 mg/L, respectively. Further, in series [5], the selectivity ratio came out at 1190.

With `N#Cc1ccc(Nc2nccc(NCc3ccccc3Cl)n2)cc1`, the IC50 in series [1] came to 0.024 µM. Besides, the cytotoxic concentration (CC50) at 120 h in series [2] came out at 275 µM. Moreover, the EC50 is 0.0149 µM in series [3], greater than 92.3 mg/L in series [4] and greater than 92.3 mg/L in series [6]. Further, the selectivity ratio in series [5] came out at 18600.

Source of the values: ChEMBL document CHEMBL3616422, “A novel family of diarylpyrimidines (DAPYs) featuring a diatomic linker: Design, synthesis and anti-HIV activities” (Bioorg Med Chem, 2015).
